Earlier results on two molecules are cited in patent US20130171093A1, “HEALING POWDER AND METHOD OF USE THEREOF” (priority 2006, published 2013).

Series [1] relates to full thickness wounds in the backs of pigs. The following applies: clean, non-infected pig wounds under Opsite.
In series [2] the test system is acute mediastinitis wounds. The note with it: 19 patients, wounds packed every 3 to 4 hours.

As to `N=C(NCCCCCCNC(=N)NC(=N)Nc1ccc(Cl)cc1)NC(=N)Nc1ccc(Cl)cc1.O=C(O)[C@H](O)[C@@H](O)[C@H](O)[C@H](O)CO.O=C(O)[C@H](O)[C@@H](O)[C@H](O)[C@H](O)CO` [chlorhexidine gluconate 0.2%, chlorhexidine gluconate], in series [1], the “wound healing / granulation tissue formation versus wounds covered with Opsite alone” value is “delayed healing”.

Take `OC[C@H]1O[C@@](CO)(O[C@H]2O[C@H](CO)[C@@H](O)[C@H](O)[C@H]2O)[C@@H](O)[C@@H]1O` [granular sugar, sucrose]: in series [2], the “debridement of the wound” value was “near complete debridement” and the “eradication of bacterial infection, average time of treatment” value is recorded as 7.6 days.
